Measured values: ChEMBL document CHEMBL4834494, “Discovery of the First Non-cGMP Mimetic Small Molecule Activators of cGMP-Dependent Protein Kinase 1 α (PKG1α)” (ACS Med Chem Lett, 2021)
≈ marks a conversion by molar mass, not a printed value.

Legend:
[1] = molecular target: T1, cGMP-dependent protein kinase 1 (Homo sapiens, UniProt Q13976); test: Activation of full length PKG1alpha (unknown origin) using Glass-tide peptide substrate incubated for 120 mins followed by addition of ADP-Glo max reagent incubated for 40 mins
T1 sequence (Q13976 whole entry): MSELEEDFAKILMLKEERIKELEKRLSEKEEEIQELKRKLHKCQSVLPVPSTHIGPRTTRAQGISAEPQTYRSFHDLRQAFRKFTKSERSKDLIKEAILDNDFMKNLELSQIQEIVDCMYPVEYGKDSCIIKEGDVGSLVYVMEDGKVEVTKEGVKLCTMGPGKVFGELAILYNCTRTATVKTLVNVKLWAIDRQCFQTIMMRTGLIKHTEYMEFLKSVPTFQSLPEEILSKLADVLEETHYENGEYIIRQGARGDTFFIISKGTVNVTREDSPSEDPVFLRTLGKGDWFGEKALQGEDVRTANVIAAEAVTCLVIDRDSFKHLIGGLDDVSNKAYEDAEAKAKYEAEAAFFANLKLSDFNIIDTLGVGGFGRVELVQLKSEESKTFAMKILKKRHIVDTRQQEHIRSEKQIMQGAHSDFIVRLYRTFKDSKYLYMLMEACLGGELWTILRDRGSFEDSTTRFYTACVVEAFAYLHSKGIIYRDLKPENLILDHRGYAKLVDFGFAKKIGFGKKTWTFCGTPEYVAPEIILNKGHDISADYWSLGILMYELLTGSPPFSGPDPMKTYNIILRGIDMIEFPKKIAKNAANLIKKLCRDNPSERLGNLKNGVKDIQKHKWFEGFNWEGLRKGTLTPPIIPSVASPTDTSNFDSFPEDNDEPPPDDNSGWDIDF

[2] = molecular target: T1, cGMP-dependent protein kinase 1; test: Activation of PKG1alpha (unknown origin) in human HEK293 cellls assessed as […] phosphorylation at Ser 239 incubated for 3 hrs by HTRF assay; format: cell-based
[3] = Solubility of compound by pH 7 measured for 24 hrs by UPLC analysis; format: physicochemical; conditions: buffer
[4] = Apparent permeability in dog MDCKII cells; format: ADME, cell-based, Canis lupus familiaris, MDCK-II; conditions: MDCK

Row | EC50 [1] | EC50 [2] | solubility at 24 h [3] | Papp [4] | Compound
1 | > 200 µM | – | – | – | CN1CCC[C@H](OCc2cc(Cl)cc(Cl)c2)[C@@H]1c1ccccc1
2 | 165 µM | – | – | – | Cn1ccnc1CN1CCC[C@H](OCc2cc(Cl)cc(Cl)c2)[C@@H]1c1ccccc1
3 | – | > 164 µM | 120 µM (≈ 50 µg/mL) | 2 ×10⁻⁶ cm/s | Clc1cc(Cl)cc(CO[C@H]2CCCN(Cc3ncc[nH]3)[C@H]2c2ccccc2)c1
4 | 112 µM | – | – | – | Clc1cc(Cl)cc(CO[C@H]2CCCN(Cc3cccnc3)[C@H]2c2ccccc2)c1
5 | 131 µM | – | – | – | OC[C@@H](O[C@H]1CCCN(Cc2ccc(-c3nn[nH]n3)cc2)[C@H]1c1ccccc1)c1cc(Cl)cc(Cl)c1
6 | 76 µM | – | – | – | O=C(O)c1ccc(CN2CCC[C@H](OCc3cc(Cl)cc(Cl)c3)[C@@H]2c2ccccc2)s1
7 | > 200 µM | – | – | – | C[C@@H](O[C@H]1OCCN(Cc2n[nH]c(=O)[nH]2)[C@H]1c1ccc(F)cc1)c1cc(C(F)(F)F)cc(C(F)(F)F)c1 [APREPITANT]
8 | 117 µM | – | – | – | O=C(O)c1cncc(CN2CCC[C@H](OCc3cc(Cl)cc(Cl)c3)[C@@H]2c2ccccc2)c1
9 | > 200 µM | – | – | – | Clc1cc(Cl)cc(CO[C@H]2CCCN(Cc3ncco3)[C@H]2c2ccccc2)c1
10 | 42 µM | – | – | – | CN1CCC[C@H](O[C@H](CO)c2cc(Cl)cc(Cl)c2)[C@@H]1c1ccccc1
11 | > 200 µM | – | – | – | O=C(O)c1ccc(CN2CCC[C@H](OCc3cc(Cl)cc(Cl)c3)[C@@H]2c2ccccc2)cn1
12 | 62 µM | – | – | – | COc1cc(C(=O)O)ccc1CN1CCC[C@H](OCc2cc(Cl)cc(Cl)c2)[C@@H]1c1ccccc1
13 | 76 µM | – | – | – | O=C(O)c1ccc(CN2CCC[C@H](OCc3cc(Cl)cc(Cl)c3)[C@@H]2c2ccccc2)cc1
14 | – | 8.8 µM | 60 µM (≈ 26.8 µg/mL) | 19 ×10⁻⁶ cm/s | OC[C@@H](O[C@H]1CCCN(Cc2ncc[nH]2)[C@H]1c1ccccc1)c1cc(Cl)cc(Cl)c1
15 | 8 µM | 141 µM | 154 µM (≈ 76.8 µg/mL) | 11 ×10⁻⁶ cm/s | OC[C@@H](O[C@H]1CCCN(Cc2cccc3nonc23)[C@H]1c1ccccc1)c1cc(Cl)cc(Cl)c1
16 | 3.7 µM | – | – | – | OC[C@@H](O[C@H]1CCCN(Cc2ccccc2Cc2nnco2)[C@H]1c1ccccc1)c1cc(Cl)cc(Cl)c1
17 | > 200 µM | – | – | – | Clc1cc(Cl)cc(CO[C@H]2CCCN(Cc3ccccn3)[C@H]2c2ccccc2)c1
18 | 11 µM | 15 µM | 85 µM (≈ 42.5 µg/mL) | 16 ×10⁻⁶ cm/s | O=C(O)c1ccc(CN2CCC[C@H](O[C@H](CO)c3cc(Cl)cc(Cl)c3)[C@@H]2c2ccccc2)cc1
19 | 123 µM | – | – | – | COc1ccc(C(=O)O)cc1CN1CCC[C@H](OCc2cc(Cl)cc(Cl)c2)[C@@H]1c1ccccc1
20 | 22 µM | 140 µM | 128 µM (≈ 69.1 µg/mL) | 4 ×10⁻⁶ cm/s | O=C(O)c1ccc2c(CN3CCC[C@H](O[C@H](CO)c4cc(Cl)cc(Cl)c4)[C@@H]3c3ccccc3)c[nH]c2c1
21 | 34 µM | 28 µM | 74 µM (≈ 37.1 µg/mL) | 14 ×10⁻⁶ cm/s | O=C(O)c1cncc(CN2CCC[C@H](O[C@H](CO)c3cc(Cl)cc(Cl)c3)[C@@H]2c2ccccc2)c1
22 | 4.5 µM | 12 µM | 154 µM (≈ 88.2 µg/mL) | 15 ×10⁻⁶ cm/s | COC(=O)Nn1c(C[C@H]2CCC[C@H](OCc3cc(C(F)(F)F)cc(C(F)(F)F)c3)[C@@H]2c2ccccc2)n[nH]c1=O
23 | 74 µM | – | – | – | Clc1cc(Cl)cc(CO[C@H]2CCCN(Cc3ccc(-c4nn[nH]n4)cc3)[C@H]2c2ccccc2)c1
24 | > 200 µM | – | – | – | Clc1cc(Cl)cc(CO[C@H]2CCCN(Cc3ccccc3)[C@H]2c2ccccc2)c1
25 | > 200 µM | – | – | – | Clc1cc(Cl)cc(CO[C@H]2CCCN(Cc3nccs3)[C@H]2c2ccccc2)c1
26 | > 200 µM | – | – | – | Clc1cc(Cl)cc(CO[C@H]2CCCN(Cc3ccncc3)[C@H]2c2ccccc2)c1
27 | 110 µM | – | – | – | Cn1cc(CN2CCC[C@H](OCc3cc(Cl)cc(Cl)c3)[C@@H]2c2ccccc2)cn1
